In patent US12648928B2, “Intervention strategy for prevention or treatment of diabetes mellitus, autoimmune disease, inflammatory disease or cardiovascular disease” (ACADEMISCH MEDISCH CENTRUM, priority 2020, dated 2026):

Experiments:
[1] = tested on: murine bone marrow-isolated monocytes or bone marrow-derived macrophages; experiment: In vitro stimulation of murine monocytes / bone marrow-derived macrophages, cytokine ELISA; assay type: cell-based
Method: Naïve bone marrow monocytes were isolated from BM cells. Briefly, hind legs were removed from 3 mice, cleaned from surrounding muscles. The femur and tibia bones were trimmed at their extremities, the BM content was flushed out with cold PBS using a 10 ml syringe and a 25G needle and filtered through a 40 μm strainer. Red blood cells (RBC) were lysed with 1× RBC lysis buffer (Biolegend) for 5 min. on ice. CD11b+ monocytes were further purified by positive selection using a cocktail of CD11 b magnetic beads (Miltenyi Biotec, #130-049-601) and magnetizing MS columns (Miltenyi Biote) according to the manufacturer's instructions. Subsequently, monocytes were seeded in F-bottom 96-well plates at 1×10^5 cells per well in RPMI1640 supplemented with 10% heat-inactivated fetal bovine serum, penicillin (100 U/ml), streptomycin (100 μg/ml), L-glutamine (2 mM) […]. Monocytes were activated with 10 μg/ml LPS (Sigma-Aldrich) and subjected to treatment with 6-BT (10/100 μM), LysoPC(20:0) (10/50 μM), MA-GPC (10/50/100 μM), or appropriate vehicle. Cells were kept in a final volume of 200 μl/well for 24 hours, after which supernatant was harvested and stored at −80° C.
Bone marrow-derived macrophages (BMDM) and DC (BMDC) were obtained by differentiating freshly isolated BM cells from femur and tibia bones (as above described) of C57/B16 mice (N=3 per experiment). For BMDM, BM cells were seeded at 3×10^6 cells per 10 cm dish and cultured for 7 days in 12 ml RPMI1640 medium with 20% fetal bovine serum, 30% L-929 cell conditioned media, as source of murine macrophage colony-stimulating factor (M-CSF). For BMDC, BM cells were seeded at 0.5×10^6/ml cells in 25 ml in 10 cm dishes and cultured for 7 days in presence of GM-CSF in 5% FBS-RPMI1640 medium. After differentiation, BMDM/DCs were harvested, counted and seeded at a density of 1×10^5 cells per well in a F-bottom 96-well plate and left to adhere for 20 hours before experiments were performed. Macrophages were activated with 10 μg/ml polyinosinic-polycytidylic acid poly(I.C) (InvivoGen) for 24 hours in presence or not of 6-BT (10/100 μM), LysoPC(20:0) (10/50 μM), or MA-GPC (10/50/100 μM) in a final volume of 200 μl/well. At the end of the assay, supernatant was harvested and stored at −80° C.
Specific ELISAs (R&D Systems) were utilized to measure the concentration of TNFα, IFNβ, and IFNγ in cell supernatant of murine monocytes, macrophages ad T cells, respectively, according to the manufacturer's instructions. The concentration of insulin after 24-hour treatment with metabolites or after GSIS were determined using Rat insulin ELISA (Mercodia) according to the manufacturer's instructions. GSIS was calculated by subtracting the concentration of insulin at 1 mM glucose to the insulin rate at 22 mM glucose.
Here, murine bone marrow-isolated monocytes (Christ A., Western Diet Triggers NLRP3-Dependent Innate Immune Reprogramming. Cell 2018) or bone marrow-derived macrophages (Swanson K V, A noncanonical function of cGAMP in inflammasome priming and activation. JEM 2017) were exposed for 24 hours to the indicated concentrations of 6-BT (10-100 μM) in presence or not of 10 μg/ml LPS, 10 μg/ml P3C or 10 μg/ml poly(I.C).

human monocytes = experiment: In vitro stimulation of human monocytes; assay type: cell-based; conditions: LPS stimulation 24 hours, 100 μM (FIG. 10)
Method: The mononuclear cell fraction was isolated from the blood of healthy volunteers (Sanquin Bloodbank, Amsterdam, The Netherlands) by density centrifugation using Lymphoprep™ (Axis-Shield) and isolated using human CD14 magnetic beads and MACS® cell separation columns (Miltenyi Biotec) according to the manufacturer's instructions. Isolated primary human monocytes were counted and seeded at 1>10^6 cells/mL in 24-well plates with 1 ml medium supplemented with 10% fetal bovine serum, 100 U/ml penicillin, 100 μg/ml streptomycin, 2 mM L-glutamine. After seeding, cells were stimulated with 10 ng/ml LPS or 25 mM D-glucose (both Sigma-Aldrich) for 24 hours with/without 100 μM 6-BT. Afterwards, cells were lysed with Tripure isolation reagent (Roche) and stored at −80° C. until RNA isolation.
Total RNA was extracted from Tripure isolation reagent cell lysates. RNA was converted to cDNA by with iScript kit (BioRad). Quantitative polymerase chain reaction (qPCR) was performed using SYBR Green-SensiMix (Bioline) on a CFX384 Touch Real-Time PCR Detection System (BioRad). The delta delta Ct method was used to calculate gene expression as fold-change compared to control (unstimulated conditions).

INS1E beta cells = experiment: Seahorse XF intracellular metabolism, INS1E beta cells; assay type: cell-based, rat
Text: Lastly, it was investigated whether 6-BT may influence the mitochondrial metabolism of beta cells, which rely on ATP and mitochondrial metabolite production for insulin exocytosis. […] Intracellular metabolism measured using a Seahorse XF Analyzer Uchimura T., The Innate Immune Sensor NLRC3 Acts as a Rheostat that Fine-Tunes T Cell Responses in Infection and Autoimmunity.

N[C@@H](Cc1c[nH]c2cc(Br)ccc12)C(=O)O [6-BT, 6-bromotryptophan]
secretion of TNFα upon TLR4 engagement ([1]; 10-100 μM, 24 hours, 10 μg/ml LPS, ELISA (FIG. 14)): can inhibit the secretion | secretion of TNFα upon TLR2 engagement ([1]; 10-100 μM, 24 hours, 10 μg/ml P3C, ELISA (FIG. 14)): can inhibit the secretion | secretion of IFNbeta upon TLR3 activation ([1]; 10-100 μM, 24 hours, 10 μg/ml poly(I.C), ELISA (FIG. 14)): can inhibit the secretion | type 1 IFN secretion ([1]; PolyI:C for 24 hours, TLR3 stimulation (FIG. 9)): impair type 1 IFN secretion | anti-inflammatory effects on monocytes ([1]; monocytes isolated from murine bone marrow, 6-BT vs tryptophan): anti-inflammatory effects are specific for the 6-bromotryptophan molecule | cytokine secretion by monocytes ([1]; murine monocytes CD11b+ activated with LPS (10 μg/ml) for 24 hours, TLR4 stimulation (FIG. 8)): halt cytokine secretion | cytokine production by human monocytes (human monocytes): reduces cytokine production | mitochondria metabolism at steady-state (INS1E beta cells; INS1E beta cells (FIG. 24)): increased mitochondria metabolism | mitochondria metabolism under hyperglycemia (INS1E beta cells; INS1E beta cells, 25 mM glucose (FIG. 24)): increased mitochondria metabolism
